Experimental data from US20220378854A1, “COMPOSITION FOR PREVENTING, TREATING, OR IMPROVING GASTROINTESTINAL DISEASES COMPRISING STRAIN OF GENUS CORYNEBACTERIUM AND CULTURE THEREOF” (CJ CheilJedang Corporation, priority 2019, published 2022).

Tests used:
WIRS rats [1] = experiment: WIRS rat model, stomach observed by naked eyes (gastrorrhagia); type: in vivo; settings: oral, 8 hours before WIRS; same threonine 0.15% by weight/diet; WIRS 6 hours
Method: (§1) 110 SD rats in total were purchased from Charles River (Osaka, Japan) and stored in an animal facility. The experimental animals were handled in the authorized animal facility according to AAALAC International Animal Care Policies. The animals were fasted 24 hours prior to be exposed to WIRS, and water was freely available. 10 rats of each group were placed in a cage for WIRS and immersed in water for 6 hours.
Sample 1 to Sample 5 prepared in Example 8 were orally administered to rats 8 hours before WIRS treatment, so that the same amount of threonine was administered (0.15% by weight/diet), and after applying WIRS for 6 hours, the animals were sacrificed and the stomach was extracted and incised and contents were removed, and a picture of the inner surface of the stomach was taken and this was shown in FIG. 11.

WIRS rats [2] = experiment: SRMD improving efficacy in WIRS rats (gross lesion index, pathologic scores); type: in vivo, rat; settings: oral 8 hours before WIRS; L-Thr 0.15% by weight/diet; WIRS 6 hours
Method: as §1
(§2) They were divided into a untreated group in which nothing was treated after oral administration of saline solution ([…], animal experimental group 1), WIRS Group in which WIRS was applied for 6 hours ([…], animal experimental group 2), and animal experimental groups in which feed containing Sample 1 (prepared in Example 8) of 0.15% by weight (animal experimental group 3) and feed containing Sample 3 (prepared in Example 8) of 0.21% by weight (animal experimental group 4) were orally treated by 30 mg/kg body, respectively, 8 hours before WIRS treatment. The content of L-Thr (L-threonine) in the feed of the animal experimental groups 3 and 4 was set to 0.15% by weight/diet equally.
All experimental animals (rat) were sacrificed with a high dose of anesthetic (thiopental sodium, 50 mg/kg) after 6 hours of WIRS. The animal experimental groups 1-4 disclosed in the following Examples 10 to 12 mean the animal experimental groups 1-4 of the Table 5, and in FIG. 7a to FIG. 10, Groups 1-4 mean the animal experimental groups 1-4 of Table 5.
The stomach of the rat sacrificed in Example 9 was incised and opened along the larger curvature, and then washed with cold PBS solution. After determining the number and size of erosions or ulcers by enlarged photographs, the half was anatomized for anatomical observation. The incised stomach was spread over plastic sheet and fixed in 10% buffer formalin for 4 hours and used for production of a paraffin tissue slide, and the other half was stored in a liquid nitrogen tank for molecular biological observation. In addition, the mucosal homogenate was stored by mixing the same animal experimental groups.
The stomach sample was observed using […] naked eyes (FIG. 7a), and in the control group and each experimental group (animal experimental groups 1-4), gross lesion index, inflammation; pathologic score, ulcer/erosion; pathologic score, regeneration; pathologic score were calculated and shown in FIG. 7b.

WIRS rats [3] = experiment: mRNA expression of inflammation mediators and PDGF in WIRS rats; type: in vivo, rat; settings: oral 8 hours before WIRS; L-Thr 0.15% by weight/diet; WIRS 6 hours
Method: as §2
Since SRMD was physiologically related to ischemic-reperfusion damage, in the animal experimental groups 1 to 4, mRNA expression of angiogenesis growth factors including PDGF (platelet-derived growth factor) and mRNA expression of inflammation mediators, iNOS, TNF-α, IFN-γ, and PDGF were measured, and the result was shown in FIG. 8a and FIG. 8b.
Specifically, the total RNA was extracted using RNeasy Mini kit (Qiagen Korea, Seoul, Korea). Amplification was analyzed using 10× reaction buffer (Promega Korea, Seoul, Korea), 1.5 mM/L MgCl2, […] deoxynucleotide triphosphate (dNTP), each primer […], and Taq DNA polymerase (Promega) 2.5 unit, using Perkin-Elmer GeneAmp PCR System 2400. Each cycle was composed of denaturation at 95° C. for 1 minute, annealing at 55° C. for […], and amplification at 72° C. for 45 seconds.

WIRS rats [4] = experiment: p-IκBα, p-ERK, p-JNK protein level in gastric mucosa of WIRS rats (western blot); type: in vivo, rat; settings: oral 8 hours before WIRS, WIRS 6 hours
Method: as §2
(§3) In addition, in each of the animal experimental groups 1-4, the protein level of p-IκBα, p-ERK, and p-JNK was measured and shown in FIG. 8c and FIG. 8d. Specifically, to perform western blot for measuring the protein level, the collected gastric mucosa was homogenized in ice-cold 20 mM Tris-HCl buffer (pH 7.5) containing 2 mM EDTA (ethylenediaminetetraacetic acid), 0.5 mM EGTA (ethylene glycol tetraacetic acid), 300 mM sucrose, and 2 mM PMSF (phenylmethylsulfonyl fluoride) with a tissue homogenator. […] The immune complex was detected using ECL detection kit (Amersham Biosciences Korea, Seoul, Korea) and X-ray film was automatically irradiated. […]

WIRS rats [5] = experiment: apoptosis on the gastric mucosa of WIRS rats (TUNEL, apoptotic index); type: in vivo, rat; settings: oral 8 hours before WIRS; WIRS 6 hours
Method: as §2
Specifically, apoptosis was visualized using TdT FragEL DNA fragmentation detection kit (Oncogene Research Products, Cambridge, Mass.) and TUNEL (Terminal deoxynucleotidyl transferase-mediated nick end labeling) method. To measure AI (apoptotic index) by finding a region in which apoptosis occurs in a large quantity (apoptotic hot spot) in each experimental group, TUNEL-immunostained section (terminal deoxynucleotidyl transferase mediated dUTP nick-end labeling (TUNEL)-immunostained section) was enlarged 100 folds and scanned. Then, the number of TUNEL-positive cells was counted in 400 fields to record AI. […]

WIRS rats [6] = experiment: apoptosis proteins in WIRS rats (western blot); type: in vivo, rat; settings: oral 8 hours before WIRS; WIRS 6 hours
Method: as §2
In addition, in each of the animal experimental groups 1-4, the protein level of p-IκBα, p-ERK, and p-JNK was measured and shown in FIG. 8c and FIG. 8d. Specifically, to perform western blot for measuring the protein level, the collected gastric mucosa was homogenized in ice-cold 20 mM Tris-HCl buffer (pH 7.5) containing 2 mM EDTA (ethylenediaminetetraacetic acid), 0.5 mM EGTA (ethylene glycol tetraacetic acid), 300 mM sucrose, and 2 mM PMSF (phenylmethylsulfonyl fluoride) with a tissue homogenator. After electrophoresis of protein of 30 μg in 8% SDS-PAGE (sodium dodecyl sulfate-polyacrylamide gel electrophoresis) gel, it was transferred to PVDF (polyvinylidene fluoride) membrane using a semidry transfer system (Hoefer, Holliston, Mass., USA). Non-specific binding was blocked by incubation with 5% non-fat dry milk. The membrane was thermostatically incubated with a 500-fold diluted solution of a primary antibody at 4° C. overnight, and then incubated with an HRP (horseradish peroxidase) binding-secondary antibody diluted by 1:1000. The immune complex was detected using ECL detection kit (Amersham Biosciences Korea, Seoul, Korea) and X-ray film was automatically irradiated. Antibodies used for western blot were as follows. β-actin, iNOS (nitric oxide synthase), COX-2 (cyclooxygenase), P-JNK (phosphor-JNK), P-ERK (phosphor-ERK), Bcl-2 (B-cell lymphoma 2), Bax (B-cell lymphoma-2-associated X-protein), and cyclin D1 antibodies were purchased from Santa Cruz Biotechnology (Santa Cruz, Calif.). p-IκBα (phosphorylated inhibitor of kappa B alpha), p-STAT3 (phosphorylated signal transducer and activator of transcription 3), PARP (poly(ADP-ribose) polymerase), CDK4 (cyclin-dependent kinase 4), and CDK2 (cyclin dependent kinase 2) were purchased from Cell Signaling Technology (Beverly, Mass.). HO-1 (A heme oxygenase-1) antibody was purchased from Enzo life Sciences (Farmingdale, N.Y.). […]

WIRS rats [7] = experiment: CDK4 and Cyclin D1 protein in WIRS rats; type: in vivo, rat; settings: oral 8 hours before WIRS; WIRS 6 hours
Method: as §2, §3

WIRS rats [8] = experiment: mucin content in stomach tissue of WIRS rats by PAS staining; type: in vivo, rat; settings: oral 8 hours before WIRS, WIRS 6 hours
Method: as §2
In the stomach tissue of the animal experimental groups 1 to 4, the mucin content was confirmed by PAS staining, and the result was shown in FIG. 10.

Question: Which “degree of gastrorrhagia reduced (therapeutic effect of gastric ulcer), rank order” value (WIRS rats [1]) does the source give for `C[C@@H](O)[C@H](N)C(=O)O` [Sample 1, threonine] here?
Answer: The value was “Sample 1<Sample 5<Sample 4<Sample 3 or Sample 2”.

Question: What about the “SRMD (erosions, hemorrhage, ulcers), stomach observation” value (WIRS rats [2]) of the same compound?
Answer: The value was “significantly improved”.

Question: And the gross lesion index (WIRS rats [2])?
Answer: The gross lesion index was “significantly (p<0.05) improved”.

Question: What about the “inflammation; pathologic score” value (WIRS rats [2]) of the same compound?
Answer: Its value is “significantly (p<0.05) improved”.

Question: What about the “regeneration; pathologic score” value (WIRS rats [2]) of the same compound?
Answer: Its value is “significantly (p<0.05) improved”.

Question: What about the “ulcer/erosion; pathologic score” value (WIRS rats [2]) of the same compound?
Answer: The value was “significantly (p<0.05) improved”.

Question: What about the “IFN-γ mRNA expression” value (WIRS rats [3]) of the same compound?
Answer: Its value is “significantly reduced”.

Question: What about the “PDGF mRNA expression” value (WIRS rats [3]) of the same compound?
Answer: The value was “significantly reduced”.

Question: What about the “TNF-α mRNA expression” value (WIRS rats [3]) of the same compound?
Answer: The value was “significantly reduced”.

Question: And the “iNOS mRNA expression” value (WIRS rats [3])?
Answer: The value was “significantly reduced”.

Question: And the “p-ERK activation (signaling)” value (WIRS rats [4])?
Answer: The value was “partially inactivated”.

Question: And the “p-JNK activation (signaling)” value (WIRS rats [4])?
Answer: Its value is “partially inactivated”.

Question: What about the “apoptosis level on the gastric mucosa (TUNEL)” value (WIRS rats [5]) of the same compound?
Answer: Its value is “significantly reduced”.

Question: And the Bax expression (WIRS rats [6])?
Answer: The Bax expression was “significantly reduced”.

Question: And the PARP division (WIRS rats [6])?
Answer: The PARP division was “significantly reduced”.

Question: What about the “cleaved caspase-3 expression” value (WIRS rats [6]) of the same compound?
Answer: The value was “significantly reduced”.

Question: And the “cleaved caspase-8 expression” value (WIRS rats [6])?
Answer: Its value is “significantly reduced”.

Question: And the “expression of CDK4” value (WIRS rats [7])?
Answer: Its value is “significantly reduced”.

Question: And the “expression of Cyclin D1” value (WIRS rats [7])?
Answer: The value was “significantly reduced”.

Question: What about the “gastric mucin / mucus expression (PAS staining)” value (WIRS rats [8]) of the same compound?
Answer: The value was “significantly preserved”.
